Assay results as given in patent publication EP0752872B1, “NADH OXIDASE AS A TARGET IN DIAGNOSIS AND THERAPY” (Morré, D. James, priority 1994, dated 1995).

What was measured:
[1] = test system: plasma membrane NADH oxidase; experiment: Spectrophotometric NADH oxidase assay, rat liver plasma membranes (normal cells); assay type: biochemical; settings: for response of the NADH oxidase activity (in words): in the presence of Mg^2+
Description: Purification of plasma membranes from rat liver. A 5000 x g pellet from the preparation of Golgi apparatus (Morré (1971) Meth. Enzymol. 22, 130-148) was the starting material. The fluffy layer which contains the Golgi apparatus fraction was mixed, withdrawn and excluded from the plasma membrane preparations. Cold 1 mM NaHCO3 (5 ml) was added to each tube and the friable yellow-brown upper part of the pellet was resuspended with a pen-brush, leaving the reddish tightly packed bottom part of the pellet undisturbed. The resuspended material was homogenized in aliquots of 5 ml each in a 30 ml stainless steel homogenizer (Duragrind) 20 times by hand. The homogenates were combined, diluted with cold 1 mM NaHCO3 (1:1 dilution), and centrifuged at 6000 x g in a HB rotor for 15 min. The supernatant was discarded and the pellet was used for the two-phase separation (Morré & Morré (1989) BioTechniques 7:946-958).
The two-phase system contained 6.4% (w/w) Dextran T-500 (Pharmacia), 6.4% (w/w) polyethylene glycol) 3350 (Fisher), and 5 mM potassium phosphate buffer (pH 7.2) (Morré & Morré, 1989, supra). The homogenate (1 g) was added to the two-phase system and the weight of the system was brought to 8 g with distilled water. The tubes were inverted vigorously for 40 times in the cold (4°C). The phases were separated by centrifugation at 750 rpm (150 x g) in a Sorvall HB 4 rotor for 5 min. The upper phases were carefully withdrawn with a pasteur pipette, divided in half and transferred into 40 ml plastic centrifuge tubes and diluted with cold 1 mM NaHCO3. The purified plasma membranes were collected by centrifugation at 10,000 x g in a HB rotor for 30 min. Plasma membrane pellets were resuspended in 50 mM Tris-Mes buffer (pH 7.2) and stored at -70°C. Proteins were determined using the bicinchoninic acid (BCA) assay (Smith et al. (1985) Anal. Biochem. […]: 76-85) with bovine serum albumin as standard.
(§1) Spectrophometric assay of NADH oxidase. NADH oxidase activity was determined as the disappearance of NADH measured at 340 nm in a reaction mixture containing 25 mM Tris-MES buffer (pH 7.2), 1 mM KCN to inhibit the low levels of contaminating mitochondrial oxidase activity, and 150 µM NADH at 37°C with constant stirring. Activity was measured using a Hitachi U3210 spectrophotometer with continuous recording over two intervals of 5 min each. A millimolar extinction coefficient of 6.22 was used to determine specific activity.

[2] = test system: NADH oxidase activity of culture medium with HeLa cells; experiment: NADH oxidase activity of culture medium with HeLa cells; assay type: biochemical, human
Description: As is characteristic of many ectoproteins of the mammalian cell surface, an NADH oxidase activity is present in the serum and in HeLa cell culture filtrate. The NADH oxidase activity of culture medium with HeLa cells is proportional to time of incubation and to the amount of medium added. […] The activity is inhibited by 85°C for 20 min, trypsin, N-ethyl maleimide and PCMB, and guanosine nucleotides. These activities have properties similar to those of the plasma membrane-bound form. The circulating form appears to have a lower molecular weight (ca. 32 kD) than the membrane-bound form. The circulating NADH oxidase in the serum of cancer patients is inhibited by adriamycin whereas the circulating NADH oxidase in the serum of healthy individuals is not. Further details from this observation are found in the examples.

[3] = test system: circulating NADH oxidase in the serum; experiment: NADH oxidase activity of human serum; assay type: biochemical; settings: normal human serum
Description: as §1

[4] = test system: Protein disulfide-thiol interchange activity of HeLa plasma membrane; experiment: Protein disulfide-thiol interchange (RNAse activity with cCMP as substrate); assay type: biochemical, human; settings: None 1.6
Description: Estimation of protein disulfide isomerase- (PDI) like activity. Two methods were employed to determine PDI or PDI-like activity.
(§2) In the first method, ribonuclease A activity was measured using a spectrophotometric assay based on cCMP as RNAse substrate. Scrambled RNAse (90.363 mg) was incubated together with 0.45 mM cCMP in 50 Mm Tris-MES buffer, pH 6.5, at 30°C in a final volume of 3 ml. […] A variation of this assay was to preincubate scrambled RNAse with transitional endoplasmic reticulum for 20 min in the presence or absence of 1 µM all-trans retinol (using ethanol as control) and in the presence or absence of 1 µM reduced or oxidized glutathione or a mixture of both. After this 20 min of "reactivation" of RNAse, cCMP was added to a final concentration of 0.45 mM to initiate the reaction. The increase of the absorbance at 296 nm was recorded over 25 min and the concentrations of cCMP were determined (E = 0.19 mM^-1cm^-1). Spectrophotometric measurements were with a Hitachi U3210 spectrophotometer with a thermostatic cell compartment maintained at 30°C with continuous stirring.
Preparation of scrambled RNAse substrate. To prepare the oxidized, denatured RNAse substrate (scrambled RNAse), native RNAse A (Sigma, Type 1-AS from bovine pancreas) (30 µg/ml) was incubated 1 h at 35°C in 50 mM Tris-acetate, pH 8.6, containing 9 M urea and 130 mM DTT.
Protein concentration was estimated from spectrophotometric measurement at 280 nm using native RNAse A as standard. For preparation of scrambled RNAse, the reduced RNAse was diluted to 0.5 mg/ml with 0.1 M acetic acid. Solid urea was then added to a final concentration of 10 M after which 0.1 M sarcosine hydrochloride was added and the pH adjusted to 8.5 with 1 M Tris. The mixture then was incubated in the dark for 2-3 days during which time the protein was randomly oxidized. The scrambled product was recovered by acidification to pH 4 with glacial acetic acid and elution from Sephadex G-25 in 0.1 M acetic acid. Fractions containing protein were pooled, adjusted to pH 8 and stored at 4°C.

[5] = test system: protein disulfide-thiol interchange of HeLa plasma membranes; experiment: Protein disulfide-thiol interchange (restoration of scrambled RNAse activity, yeast RNA hydrolysis method); assay type: biochemical, human; settings: for protein disulfide-thiol interchange, I: column I; for protein disulfide-thiol interchange, II: column II; for protein disulfide-thiol interchange, III: column III
Description: Estimation of protein disulfide isomerase- (PDI) like activity. Two methods were employed to determine PDI or PDI-like activity. […] For the assay, 100 µl was transferred to each of 4 tubes. Yeast RNA (100 µl, 0.33 mg/ml, pH 5.0) was added. After 0 min and 10 min, the reaction was stopped by the addition of 100 µl of 25% percholoric acid containing 0.75% uranyl acetate. The tubes were cooled in an ice bath for 5 min and clarified by centrifugation (2 min, microfuge). The 75 µl of the clear supernatant was diluted to 3.0 ml with water. The absorbance was measured at […] against an unincubated blank. […] To prepare the oxidized, denatured RNAse substrate (scrambled RNAse), native RNAse A (Sigma, Type 1-AS from bovine pancreas) (30 µg/ml) was incubated 1 h at 35°C in 50 mM Tris-acetate, pH 8.6, containing 9 M urea and 130 mM DTT. […] Protein concentration was estimated from spectrophotometric measurement at 280 nm using native RNAse A as standard. For preparation of scrambled RNAse, the reduced RNAse was diluted to 0.5 mg/ml with 0.1 M acetic acid. […] The scrambled product was recovered by acidification to pH 4 with glacial acetic acid and elution from Sephadex G-25 in 0.1 M acetic acid. Fractions containing protein were pooled, adjusted to pH 8 and stored at 4°C.

[6] = test system: HeLa cells; experiment: Growth of HeLa cells in culture; assay type: cell-based, human
Description: Growth of cells. HeLa cells (ATCC CCL2), were grown in 150 cm^2 flasks in Minimal Essential Medium (Gibco), pH 7.4. at 37°C with 10% bovine calf serum (heat-inactivated), plus 50 mg/l gentamycin sulfate (Sigma). Cells were trypsinized with Sigma IX trypsin for 1 to 2 min, harvested by scraping and taken up in TD-tris buffer (140 mM NaCl, 5 mM KCl, 0.7 mM Na2HPO4 and 25 mM Tris, pH 7.4) to a final cell concentration of 0.1 g wet weight (gww) per ml.
The number of cells initially plated was subtracted. The results were averages from duplicate experiments.

[7] = biological target: T1, native RNAse (Bos taurus, UniProt P61823); experiment: Activity of native RNAse; assay type: biochemical, bovine; settings: sulfonylurea 1 µM; for activity of native RNAse, pH 6.0: None 0.15; for activity of native RNAse, pH 6.8: None 0.21
T1 construct: native RNAse A (Sigma, Type 1-AS from bovine pancreas); purchased Sigma Type 1-AS; host or cells: bovine pancreas
T1 sequence (P61823 27-150): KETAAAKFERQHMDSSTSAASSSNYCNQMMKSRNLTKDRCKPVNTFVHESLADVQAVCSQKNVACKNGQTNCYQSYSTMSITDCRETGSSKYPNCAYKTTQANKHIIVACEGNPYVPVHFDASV
Description: as §2, with “substrate.” for “substrate. Scrambled RNAse (90.363 mg) was incubated together with 0.45 mM cCMP in 50 Mm Tris-MES buffer, pH 6.5, at 30°C in a final volume of 3 ml.”, “[…] […]” for “A variation of this assay was to preincubate scrambled RNAse with transitional endoplasmic”

[8] = substance alone, thiol addition 1 µM, none 0.11
[9] = substance alone, thiol addition 1 µM, none 0.047
[10] = biphasic response, read-out: Km at low NADH concentrations

CC1=CC(=O)[C@@H](O)[C@]2(C)[C@H]3[C@@]4(O)OC[C@]35[C@H]([C@@H](C)[C@H]4O)[C@@H](O)C(=O)O[C@@H]5C[C@@H]12 [(-)-glaucarubolone]
IC50 ([1]; liver plasma membranes, Figure 3, read-out: final concentration at which the activity was 50% inhibited): ~1 nM

CCN1C(=O)C=CC1=O [N-ethyl maleimide]
inhibition of NADH oxidase activity (in words) [2]: inhibited
inhibition of NADH oxidase activity (in words) [3]: inhibited

N[C@@H](CCC(=O)N[C@@H](CS)C(=O)NCC(=O)O)C(=O)O [GSH, reduced glutathione]
Protein disulfide-thiol interchange activity ([4]; thiol treatment, concentration not given): 2.1 nmoles/min/mg protein
protein disulfide-thiol interchange, I [5, 8]: 0.06 0.D./10 min
protein disulfide-thiol interchange, II [5, 9]: 0.06 0.D./10 min
protein disulfide-thiol interchange, III ([5]; substance alone, thiol addition 1 µM, none 0.021): 0.041 0.D./10 min

Nc1ccc(Cl)cc1 [free chloroaniline, chloroaniline]
inhibition of growth of HeLa cells (in words) [6]: inactive

aluminum fluoride
response of the hormone- and growth-stimulated NADH oxidase (in words) [1]: weakly inhibitory

Nc1nc2c(ncn2[C@@H]2O[C@H](COP(=O)(O)OP(=O)(O)O)[C@@H](O)[C@H]2O)c(=O)[nH]1 [GDP]
response of the NADH oxidase activity (in words) [1]: inhibited

Cc1ccc(S(=O)(=O)NC(=O)Nc2ccc(Cl)cc2)cc1 [LY181984, N-(4-methylphenylsulfonyl)-N'-(4-chlorophenyl) urea]
activity of native RNAse, pH 6.0 [7]: 0.14 µmol/mg/min
activity of native RNAse, pH 6.8 [7]: 0.21 µmol/mg/min
Protein disulfide-thiol interchange activity ([4]; treatment at 1 µM): 1.0 nmoles/min/mg protein
protein disulfide-thiol interchange, I [5, 8]: 0.076 0.D./10 min
protein disulfide-thiol interchange, I ([5]; sulfonylurea with GSH 1 µM): 0.056 0.D./10 min
protein disulfide-thiol interchange, I ([5]; sulfonylurea with GSSG 1 µM): 0.044 0.D./10 min
protein disulfide-thiol interchange, II [5, 9]: 0.049 0.D./10 min
protein disulfide-thiol interchange, II ([5]; sulfonylurea with GSH 1 µM): 0.03 0.D./10 min
protein disulfide-thiol interchange, II ([5]; sulfonylurea with GSSG 1 µM): 0.04 0.D./10 min
protein disulfide-thiol interchange, III ([5]; sulfonylurea with GSH 1 µM): 0.018 0.D./10 min
protein disulfide-thiol interchange, III ([5]; sulfonylurea with GSSG 1 µM): 0.016 0.D./10 min
inhibition of protein disulfide isomerase-like activity (in words) ([5]; plasma membrane vesicles isolated from HeLa cells): inhibited the activity

O=C(O)c1cc[c]([Hg][Cl])cc1 [PCMB, p-chloromercuribenzoate]
inhibition of NADH oxidase activity (in words) [2]: inhibited
inhibition of NADH oxidase activity (in words) [3]: inhibited

Cc1ccc(S(=O)(=O)NC(=O)Nc2ccccc2)cc1 [LY181985, N-(4-methylphenylsulfonyl)-N'-(phenyl)urea]
activity of native RNAse, pH 6.0 [7]: 0.15 µmol/mg/min
activity of native RNAse, pH 6.8 [7]: 0.21 µmol/mg/min

Nc1nc2c(ncn2[C@@H]2O[C@H](COP(=O)(O)OP(=O)(O)OP(=O)(O)O)[C@@H](O)[C@H]2O)c(=O)[nH]1 [GTP]
inhibition of NADH oxidase activity (in words) [3]: inhibited

mastoparan
response of the hormone- and growth-stimulated NADH oxidase (in words) [1]: activated

NC(=O)C1=CN([C@@H]2O[C@H](COP(=O)(O)OP(=O)(O)OC[C@H]3O[C@@H](n4cnc5c(N)ncnc54)[C@H](O)[C@@H]3O)[C@@H](O)[C@H]2O)C=CC1 [NADH, reduced pyridine nucleotide]
Km [2, 10]: 15 µM
Km [3, 10]: 25 µM

Nc1nc2c(ncn2[C@@H]2O[C@H](COP(=O)(O)OP(=O)(O)OP(O)(O)=S)[C@@H](O)[C@H]2O)c(=O)[nH]1 [GTP [γ-S]]
response of the NADH oxidase activity (in words) [1]: inhibited
